Measured values as given in BindingDB's records for PubMed 35315650 (Korea Research Institute of Chemical Technology, 2022).

assay: Agonist activity at STING in human wild-type THP1-Dual cells co-expressing ISRE reporter assessed as IRF-mediated immune response incubated for 24 hrs by QUANTI Luc based microplate reader method

| SMILES | EC50 [µM] |
| --- | --- |
| CCn1nc(C)cc1C(=O)Nc1nc2cc(C(N)=O)cc(OC)c2n1C/C=C/CNC(=O)OC(C)(C)C | 4.6 |
| CCn1nc(C)cc1C(=O)NCCCOc1cc(C(N)=O)cc2nc(NC(=O)c3cc(C)nn3CC)n(C)c12 | 6.22 |
| CCn1nc(C)cc1C(=O)Nc1nc2cc(C(N)=O)ccc2n1CCCCNC(=O)OC(C)(C)C | 6.55 |
| CCn1nc(C)cc1C(=O)NCCCCn1c(NC(=O)c2cc(C)nn2CC)nc2cc(C(N)=O)ccc21 | 9.12 |
| Cn1cc(C(=O)Nc2nc3cc(C(N)=O)ccc3n2CCCCn2c(NC(=O)c3cn(C)nc3C(F)(F)F)nc3cc(C(N)=O)ccc32)c(C(F)(F)F)n1 | 17.6 |
| CCn1nc(C)cc1C(=O)Nc1nc2cc(C(N)=O)ccc2n1CCCCNC(=O)c1ccccc1 | 28.6 |
| CCn1nc(C)cc1C(=O)Nc1nc2cc(C(N)=O)cc(OCCCN)c2n1C | 29.8 |
| CCn1nc(C)cc1C(=O)Nc1nc2cc(C(N)=O)ccc2n1CCCCNC(=O)c1cc(C)nn1C | 30.1 |
| CCn1nc(C)cc1C(=O)NCCCn1c(NC(=O)c2cc(C)nn2CC)nc2cc(C(N)=O)ccc21 | 39.1 |
| CCn1nc(C)cc1C(=O)Nc1nc2cc(C(N)=O)ccc2n1CCCNC(=O)OC(C)(C)C | 48.6 |
| CCn1nc(C)cc1C(=O)Nc1nc2cc(C(N)=O)ccc2n1CCCCNC(=O)C(C)(C)C | 51.1 |

These reach a lower EC50. Values come first.

| EC50 [µM] | SMILES |
| --- | --- |
| 1.23 | CCn1nc(C)cc1C(=O)/N=c1\[nH]c2cc(C(N)=O)ccc2n1CCCCn1/c(=N/C(=O)c2cc(C)nn2CC)[nH]c2cc(C(N)=O)ccc21 |
| 0.804 | CCn1nc(C)cc1C(=O)Nc1nc2cc(C(N)=O)cc(OC)c2n1CCCCNC(=O)OC(C)(C)C |
| 0.000354 | CCn1nc(C)cc1C(=O)Nc1nc2cc(C(N)=O)cc(OC)c2n1C/C=C/Cn1c(NC(=O)c2cc(C)nn2CC)nc2cc(C(N)=O)cc(OCCCNC(=O)OC(C)(C)C)c21 |
| 1.66 | CCn1nc(C)cc1C(=O)Nc1nc2cc(C(N)=O)cc(OCCCNC(=O)OC(C)(C)C)c2n1C |
| 1.69 | CCn1nc(C)cc1C(=O)Nc1nc2cc(C(N)=O)ccc2n1CCCCCNC(=O)OC(C)(C)C |
| 4e-06 | CCn1nc(C)cc1C(=O)NCCCOc1cc(C(N)=O)cc2nc(NC(=O)c3cc(C)nn3CC)n(C/C=C/Cn3c(NC(=O)c4cc(C)nn4CC)nc4cc(C(N)=O)cc(OC)c43)c12 |
| 0.00162 | CCn1nc(C)cc1C(=O)Nc1nc2cc(C(N)=O)cc(OC)c2n1C/C=C/Cn1c(NC(=O)c2cc(C)nn2CC)nc2cc(C(N)=O)cc(OCCCN)c21 |
